From US11975099B2, “Ethanol foam sclerosing agent for treating vascular anomalies and preparation method thereof” (QILU HOSPITAL OF SHANDONG UNIVERSITY, priority 2019, dated 2024)

How the values were obtained:
[1] = Plasma experiment (protein coagulation in anticoagulant blood); settings: added to 1 mL fresh human anticoagulant blood in test tube
Method: Plasma experiment: A plasma experiment was performed using absolute ethanol and the sclerosing agent solution of Embodiment 1. As shown in A of FIG. 3, 1 mL of fresh human anticoagulant blood was taken. As shown in C of FIG. 3, absolute ethanol was added to a test tube, and as shown in B of FIG. 3, the sclerosing agent solution of Embodiment 1 was added to a test tube.

[2] = tested on: rabbit ear edge; assay: Animal experiment: rabbit ear edge injection; type: in vivo; settings: 0.5 mL injected, New Zealand white rabbits
Method: Animal experiment: A first experimental group: the experimental subjects were 20 New Zealand white rabbits with the body weight of 1.5 kg, injected with 0.5 mL of absolute ethanol solution. A second experimental group: the experimental subjects were 20 New Zealand white rabbits with the body weight of 1.5 kg, injected with 0.5 mL of the foam sclerosing agent of Embodiment 1. The edges of ears of the experimental subjects in the first experimental group and the second experimental group were all intact before the experiment.

- reaction of ear edge 3 days after the injection ([2]; 3 days): the whole ear has obvious hematoma
- reaction of ear edge 7 days after the injection ([2]; 7 days): the swelling is reduced
Structure (SMILES): CCO [absolute ethanol]
- coagulation of the protein in the plasma [1]: coagulated the protein in the plasma
- reaction of ear edge 25 days after the injection ([2]; 25 days): the local blood vessels and some normal tissues are destroyed, resulting in tissue defect of the rabbit ear edge
- reaction of ear edge immediately after the injection ([2]; immediately after injection): extensive and large-area hematoma appears on the ear edge immediately
